The values that follow come from patent publication US20180000085A1, “USE OF PICOLINAMIDE COMPOUNDS WITH FUNGICIDAL ACTIVITY” (DOW AGROSCIENCES LLC, priority 2014, published 2018).

One assay deals with Zymoseptoria tritici. Kind of assay: Leaf blotch of wheat (SEPTTR) disease control on wheat seedlings. Type of assay: in vivo. Set-up: key to SEPTTR 1DP, HV activity at 100 ppm (% control rating) / SEPTTR 3DC, HV activity at 100 ppm (% control rating) / SEPTTR disease control, 1DP / SEPTTR disease control, 3DC / SEPTTR 1DP disease control rating, HV activity / SEPTTR 3DC disease control rating, HV activity / SEPTTR 3DC, LV activity at 125.1 g/H (% Control rating) / SEPTTR 1DP, LV activity at 125.1 g/H (% Control rating) / SEPTTR 1DP disease control rating, LV activity at 125.1 g/H / SEPTTR 3DC disease control rating, LV activity at 125.1 g/H / SEPTTR 3DC disease control rating, HV activity at 100 ppm / SEPTTR 1DP disease control rating, HV activity at 100 ppm / HV activity at 100 ppm SEPTTR 3DC (disease control rating) / HV activity at 100 ppm SEPTTR 1DP (disease control rating) / LV activity at 125.1 g/H SEPTTR 1DP (disease control rating) / LV activity at 125.1 g/H SEPTTR 3DC (disease control rating): A: > 80; B: ≤ 80; C: Not Tested; D: No Activity Observed in the Reported Assay. The settings on record: for LV activity at 125.1 g/H SEPTTR 1DP (disease control rating) / LV activity at 125.1 g/H SEPTTR 3DC (disease control rating) / SEPTTR 1DP disease control rating, LV activity at 125.1 g/H / SEPTTR 3DC disease control rating, LV activity at 125.1 g/H / SEPTTR 1DP, LV activity at 125.1 g/H (% Control rating) / SEPTTR 3DC, LV activity at 125.1 g/H (% Control rating): low volume application; for LV activity at 125.1 g/H SEPTTR 1DP (disease control rating) / SEPTTR 1DP, LV activity at 125.1 g/H (% Control rating) / SEPTTR 1DP disease control rating, HV activity: 1 Day Protectant; for LV activity at 125.1 g/H SEPTTR 1DP (disease control rating) / LV activity at 125.1 g/H SEPTTR 3DC (disease control rating) / SEPTTR 1DP disease control rating, HV activity / SEPTTR 3DC disease control rating, HV activity: wheat leaf blotch; for LV activity at 125.1 g/H SEPTTR 3DC (disease control rating) / SEPTTR 3DC, LV activity at 125.1 g/H (% Control rating) / SEPTTR 3DC disease control rating, HV activity: 3 Day Curative; for SEPTTR 1DP disease control rating, LV activity at 125.1 g/H: 1 day protectant; for SEPTTR 3DC disease control rating, LV activity at 125.1 g/H: 3 day curative; for SEPTTR 1DP disease control rating, HV activity / SEPTTR 3DC disease control rating, HV activity: HV application at 100 ppm. The method, then:
(§1) All fungicides were evaluated using the aforementioned method for their activity vs. all target diseases, unless stated otherwise. Wheat leaf blotch and brown rust activity were also evaluated using track spray applications, in which case the fungicides were formulated as EC formulations, containing 0.1% Trycol 5941 in the spray solutions. Wheat plants (variety Yuma) were grown from seed in a greenhouse in 50% mineral soil/50% soil-less Metro mix until the first leaf was fully emerged, with 7-10 seedlings per pot. These plants were inoculated with an aqueous spore suspension of Zymoseptoria tritici either prior to or after fungicide treatments. After inoculation the plants were kept in 100% relative humidity (one day in a dark dew chamber followed by two to three days in a lighted dew chamber at 20° C.) to permit spores to germinate and infect the leaf. The plants were then transferred to a greenhouse set at 20° C. for disease to develop. When disease symptoms were fully expressed on the 1st leaves of untreated plants, infection levels were assessed on a scale of 0 to 100 percent disease severity. Percent disease control was calculated using the ratio of disease severity on treated plants relative to untreated plants.

In the next assay the test system is Puccinia triticina. Kind of assay: Wheat brown rust (PUCCRT) disease control on wheat seedlings. Type of assay: in vivo. On the set-up: key to PUCCRT 3DC, HV activity at 100 ppm (% control rating) / PUCCRT disease control, 3DC / PUCCRT 1DP disease control rating, HV activity / PUCCRT 3DC disease control rating, HV activity / PUCCRT 3DC, LV activity at 125.1 g/H (% Control rating) / PUCCRT 1DP, LV activity at 125.1 g/H (% Control rating) / PUCCRT 3DC disease control rating, LV activity at 125.1 g/H / PUCCRT 1DP disease control rating, LV activity at 125.1 g/H / PUCCRT 3DC disease control rating, HV activity at 100 ppm / PUCCRT 1DP disease control rating, HV activity at 100 ppm / HV activity at 100 ppm PUCCRT 3DC (disease control rating) / LV activity at 125.1 g/H PUCCRT 1DP (disease control rating) / LV activity at 125.1 g/H PUCCRT 3DC (disease control rating): A: > 80; B: ≤ 80; C: Not Tested; D: No Activity Observed in the Reported Assay. The note with it: for LV activity at 125.1 g/H PUCCRT 1DP (disease control rating) / LV activity at 125.1 g/H PUCCRT 3DC (disease control rating) / PUCCRT 1DP disease control rating, LV activity at 125.1 g/H / PUCCRT 3DC disease control rating, LV activity at 125.1 g/H / PUCCRT 1DP, LV activity at 125.1 g/H (% Control rating) / PUCCRT 3DC, LV activity at 125.1 g/H (% Control rating): low volume application; for LV activity at 125.1 g/H PUCCRT 1DP (disease control rating) / PUCCRT 1DP, LV activity at 125.1 g/H (% Control rating) / PUCCRT 1DP disease control rating, HV activity: 1 Day Protectant; for LV activity at 125.1 g/H PUCCRT 1DP (disease control rating) / LV activity at 125.1 g/H PUCCRT 3DC (disease control rating) / PUCCRT 1DP disease control rating, HV activity / PUCCRT 3DC disease control rating, HV activity: wheat brown rust; for LV activity at 125.1 g/H PUCCRT 3DC (disease control rating) / PUCCRT 3DC, LV activity at 125.1 g/H (% Control rating) / PUCCRT 3DC disease control rating, HV activity: 3 Day Curative; for PUCCRT 1DP disease control rating, LV activity at 125.1 g/H: 1 day protectant; for PUCCRT 3DC disease control rating, LV activity at 125.1 g/H: 3 day curative; for PUCCRT 1DP disease control rating, HV activity / PUCCRT 3DC disease control rating, HV activity: HV application at 100 ppm. The method, then: as §1, with “plants. Example B: Evaluation of Fungicidal Activity: Wheat Brown Rust (Puccinia triticina; Synonym: Puccinia recondita f. sp. Tritici; Bayer Code PUCCRT) Wheat plants (variety Yuma) were grown from seed in a greenhouse in 50% mineral soil/50% soil-less Metro mix until the first leaf was fully emerged, with 7-10 seedlings per pot. These plants were inoculated with an aqueous spore suspension of Puccinia triticina either prior to or after fungicide treatments. […] The plants were then transferred to a greenhouse set at 24° C. for disease to develop. Fungicide formulation, application and disease assessment followed the procedures as described in the Example A.” for “plants.”

As to `COc1ccnc(C(=O)N[C@@H](C)C(=O)O[C@@H](C)[C@H](Oc2cccc(Cl)c2)C2CC2)c1OC(C)=O` [Cmpd 1053], in the assay with Zymoseptoria tritici, the “LV activity at 125.1 g/H SEPTTR 1DP (disease control rating)” value is recorded as “B (≤ 80)” and the “LV activity at 125.1 g/H SEPTTR 3DC (disease control rating)” value is on record as “A (> 80)”. In addition, in the assay with Puccinia triticina, the “LV activity at 125.1 g/H PUCCRT 1DP (disease control rating)” value is “A (> 80)” and the “LV activity at 125.1 g/H PUCCRT 3DC (disease control rating)” value is recorded as “A (> 80)”.
As to `COc1cccc(O[C@@H]([C@H](C)OC(=O)[C@H](C)NC(=O)c2nccc(OC)c2OC(C)=O)C(C)(C)C)c1` [Cmpd 1062], in the assay with Zymoseptoria tritici, the “LV activity at 125.1 g/H SEPTTR 1DP (disease control rating)” value is “B (≤ 80)” and the “LV activity at 125.1 g/H SEPTTR 3DC (disease control rating)” value is given as “B (≤ 80)”. Moreover, in the assay with Puccinia triticina, the “LV activity at 125.1 g/H PUCCRT 1DP (disease control rating)” value is reported as “A (> 80)” and the “LV activity at 125.1 g/H PUCCRT 3DC (disease control rating)” value is recorded as “A (> 80)”.
Take `CCC(CC)C(Oc1ccc(Cl)cc1)C(C)OC(=O)C(CC(C)C)NC(=O)c1nccc(OC)c1OCOC(C)=O` (centres unmarked) [Cmpd 681]: in the assay with Zymoseptoria tritici, the “SEPTTR 1DP disease control rating, LV activity at 125.1 g/H” value was “D” and the “SEPTTR 3DC disease control rating, LV activity at 125.1 g/H” value was “B (≤ 80)”. In the assay on Puccinia triticina, the “PUCCRT 1DP disease control rating, LV activity at 125.1 g/H” value is on record as “D” and the “PUCCRT 3DC disease control rating, LV activity at 125.1 g/H” value is given as “D”.
On to `CC[C@H](Cc1ccc(OC)cc1)[C@@H](Oc1ccccc1)[C@H](C)OC(=O)[C@H](C)NC(=O)c1nccc(OC)c1OCOC(C)=O` [Cmpd 470], for which, in the assay on Zymoseptoria tritici, the “SEPTTR 1DP, LV activity at 125.1 g/H (% Control rating)” value is “A (> 80)” and the “SEPTTR 3DC, LV activity at 125.1 g/H (% Control rating)” value was “A (> 80)”. Further, in the assay with Puccinia triticina, the “PUCCRT 1DP, LV activity at 125.1 g/H (% Control rating)” value is “A (> 80)” and the “PUCCRT 3DC, LV activity at 125.1 g/H (% Control rating)” value is reported as “A (> 80)”.
As to `CCC(CC)C(Oc1cc(F)ccc1F)C(C)OC(=O)C(C)NC(=O)c1nccc(OC)c1O` (centres unmarked) [Cmpd 382], in the assay on Zymoseptoria tritici, the “SEPTTR 1DP disease control rating, HV activity” value is “D” and the “SEPTTR 3DC disease control rating, HV activity” value is reported as “B (≤ 80)”. Further, in the assay on Puccinia triticina, the “PUCCRT 1DP disease control rating, HV activity” value is “A (> 80)” and the “PUCCRT 3DC disease control rating, HV activity” value is reported as “A (> 80)”.
As for `COc1ccnc(C(=O)N[C@@H](C)C(=O)O[C@@H](C)[C@H](Oc2ccc(Cl)cc2)c2ccccc2)c1OCOC(C)=O` [Cmpd 636], in the assay with Zymoseptoria tritici, the “SEPTTR 1DP, LV activity at 125.1 g/H (% Control rating)” value is given as “A (> 80)” and the “SEPTTR 3DC, LV activity at 125.1 g/H (% Control rating)” value is “A (> 80)”. Besides, in the assay with Puccinia triticina, the “PUCCRT 1DP, LV activity at 125.1 g/H (% Control rating)” value is given as “A (> 80)” and the “PUCCRT 3DC, LV activity at 125.1 g/H (% Control rating)” value is “A (> 80)”.
With `CCC(CC)C(Oc1cccc(F)c1)C(C)OC(=O)C(CC(C)C)NC(=O)c1nccc(OC)c1OC(C)=O` (centres unmarked) [Cmpd 685], in the assay with Zymoseptoria tritici, the “SEPTTR 1DP disease control rating, LV activity at 125.1 g/H” value was “D” and the “SEPTTR 3DC disease control rating, LV activity at 125.1 g/H” value was “B (≤ 80)”. In addition, in the assay with Puccinia triticina, the “PUCCRT 1DP disease control rating, LV activity at 125.1 g/H” value is recorded as “B (≤ 80)” and the “PUCCRT 3DC disease control rating, LV activity at 125.1 g/H” value was “D”.
Take `CCC(C)C(NC(=O)c1nccc(OC)c1O)C(=O)OC(C)C(Oc1ccc(C(F)(F)F)cc1)C(C)C` (centres unmarked) [Cmpd 396]: in the assay on Zymoseptoria tritici, the “SEPTTR 1DP disease control rating, HV activity” value is recorded as “B (≤ 80)” and the “SEPTTR 3DC disease control rating, HV activity” value was “B (≤ 80)”. Moreover, in the assay on Puccinia triticina, the “PUCCRT 1DP disease control rating, HV activity” value is listed as “B (≤ 80)” and the “PUCCRT 3DC disease control rating, HV activity” value is reported as “D”.
